Measured values reported in patent US20210261636A1, “NEOANTIGENS EXPRESSED IN MULTIPLE MYELOMA AND THEIR USES” (Janssen Biotech, Inc., priority 2020, published 2021).

What was measured:
CD8+ T cells = assay: Exogenous autologous healthy donor restimulation assay, TNFα and IFNγ production by CD8+ T cells; type: cell-based, human; set-up: Frequency (TNFα+ IFNγ+ CD8 T cells): unit not given here; details: for Fold change (CD8+) vs. DMSO: maximum CD8+ T-cell response (TNFα and IFNγ); for Fold change (CD8+) vs. DMSO / Frequency (TNFα+ IFNγ+ CD8 T cells): donor independent, peptide pool 10 μg/mL, healthy donors; for Frequency (TNFα+ IFNγ+ CD8 T cells): maximum CD8+ T-cell response; for Immunogenic (yes/no): positive if CD8+ and/or CD4+ double positive TNFα/IFNγ frequency >=3-fold over DMSO and at least 0.01%
Description: (§1) Immunogenicity responses were measured by estimating TNFα IFNγ double positive cells in the CD4+ and/or CD8+ T-cell populations. A response is considered positive if TNFα IFNγ double positive fraction was greater than or equal to three-fold over unstimulated cells (DMSO negative control) with a minimum frequency >=0.01%. […]
(§2) Overlapping 15-mer peptides were designed to span each indicated neoantigen. Their ability to activate T cells was assessed using known methods, such as the assay defnied as exogenous autologous normal donor restimulation assay. The peptides were used as pools using TNFα and IFNγ production by CD8^+ and CD4^+ T cells as a readout. Maximum frequency of CD8^+TNFα^+IFNγ^+ and CD4^+TNFα^+IFNγ^+ T cells and maximum fold change over background for each pool of peptides were analyzed, which were calculated as the highest frequency of CD8^+ TNFα^+IFNγ^+ and CD4^+ TNFα^+IFNγ^+ T cells and resulting fold change across the normal donors evaluated for the peptide.
(§3) CD1c+Dendritic Cells (CD1c+DC) isolated from human healthy PBMCs were thawed using media (IMDM (Gibco) supplemented with glutamine, HEPES, 5% human serum (Sigma), and 1× Pen-Strep). DC cells were resuspended in media supplemented with IL-4 (Peprotech, 20 ng/mL) and GM-CSF (Gibco, 20 ng/mL), plated in 6 well microplates, and rested overnight at 37° C. and 5% CO2 incubator. The following day, DC cells were counted and plated in a 96 well round bottom microplate at a concentration of 30,000 viable cells per well. Lyophilized neoantigen peptide pools (15-mer peptides with 8-mer overlapping peptide sequences) were solubilized in 100% DMSO with a stock concentration of 20 mg/mL Neoantigen peptides pools were added to DCs for a final concentration of 10 μg/mL and rested for 2 hours at 37° C. and 5% CO2 incubator. CEF Peptide Pool “Plus” (Cellular Technologies, Ltd.) was utilized as a positive control (each viral peptide at a final concentration of 4 ug/ml) and DMSO at the same final concentration (0.05%) as the experimental peptides was utilized as a negative control. After 2 hours, DC cells were irradiated with 50 gray of ionizing radiation. Autologous CD3+ Pan-T cells isolated from human normal PBMCs were thawed using media. Following irradiation, autologous Pan-T cells were added to the irradiated DCs at 300,000 viable cells per well. Human IL-15 (Peprotech) was added to all wells at final concentration of 10 ng/ml. Plates were incubated at 37° C. and 5% CO2 incubator for a total of 12 days. Media was refreshed every 2-3 days with IL-15 (R&D System, 10 ng/mL final concentration) and IL-2 (R&D systems, 10 IU/mL final concentration).
(§4) On Day 11, cells were re-stimulated with identical experimental peptide pools or controls, at same concentration as peptide stimulation on Day 1. Protein Inhibitor Cocktail (eBioscience) was added to every well and plate was incubated overnight for 14-16 hours at 37° C. and 5% CO2 incubator. On Day 12, cells were stained for surface and intracellular flow cytometry analysis. The cells were washed with PBS and stained with Live/Dead Fixable Aqua Dead Cell stain (Thermo-Fisher). Following the live/dead stain, cells were blocked using Biotin-Free Fc Receptor Blocker (Accurate Chemical & Scientific Corp). Extracellular cellular flow panel (1 μL/antibody per well in 50 μL) consisted of CD3 PerCP-Cy5.5 (Biolegend), CD4 BV421 (Biolegend), and CD8 APC-Cy7 (Biolegend). After extracellular staining, cells were fixed and permeabilized using Foxp3/Transcription Factor Staining Buffer Set (eBioscience) and stained for intracellular proteins (1:50 dilution) using TNFα FITC (R&D Systems) and IFNγ BV785 (Biolegend). Cells were washed and resuspended in stain buffer, analyzed, and recorded in a BD Celesta flow cytometer.
(§5) Flow cytometry analysis was conducted on FlowJo v10.6 software. Cells were gated on live, singlet, CD3+, CD4+ and CD8+ T cells. The CD8+ and CD4+ T cells were analyzed for TNFα and IFNγ expression. […]

CD4+ T cells = assay: Exogenous autologous healthy donor restimulation assay, TNFα and IFNγ production by CD4+ T cells; type: cell-based, human; set-up: Frequency (TNFα+ IFNγ+ CD4 T cells): unit not given here; details: donor independent, peptide pool 10 μg/mL, healthy donors; for Fold change (CD4+) vs. DMSO: maximum CD4+ T-cell response (TNFα and IFNγ); for Frequency (TNFα+ IFNγ+ CD4 T cells): maximum CD4+ T-cell response
Description: as §1, §2, §3, §4, §5

Row | Sequence | Fold change (CD8+) vs. DMSO (CD8+ T cells) | Frequency (TNFα+ IFNγ+ CD8 T cells) (CD8+ T cells) | Immunogenic (yes/no) (CD8+ T cells) | Fold change (CD4+) vs. DMSO (CD4+ T cells) | Frequency (TNFα+ IFNγ+ CD4 T cells) (CD4+ T cells)
1 | LQAILQPGNFILVNEI [AS5, alternative splicing, C3orf79] | 4.64 | 0.068 | Yes | 19.14 | 0.14
2 | LRYLIHLRKWKIK [FUS55, gene fusion FAM214A-> ARPP19] | 13.57 | 0.38 | Yes | 74.67 | 0.056
3 | LTALLLLASTPTP [AS18, alternative splicing, FCRLB] | 7.33 | 0.082 | Yes | 12.922 | 0.006
4 | LVARPEIQIFMEEDVMKVE [AS124, alternative splicing, PDZRN4] | 5.27 | 0.089 | Yes | 7.31 | 0.064
5 | MDLTAIYEDSAGPLSHA [FUS54, gene fusion ZFP36-> PLEKHG2] | 15.176 | 2.58 | Yes | 9.66 | 0.063
6 | MDLTAIYETMQIFVKT [FUS30, gene fusion ZFP36-> UBC] | 3.5 | 0.13 | Yes | 51.81 | 0.1
7 | MEPTTKRGPGGTMVSAAAPS [FUS52, gene fusion SELPLG-> TMEM119] | 46.95 | 2.09 | Yes | 6.831 | 0.02
8 | MKQFLDFGECGPGPWAFLRGPGRGAAAAAPGRVGAGQLSPEAHPSSSAFPPPAP [AS10, alternative splicing, PDK1] | 70.588 | 12 | Yes | 76.818 | 0.028
9 | NASLHEVKDFFVPFPLPLLHLTSLKRNKLFN [AS110, alternative splicing, CCDC88A] | 228.56 | 4.21 | Yes | 36.021 | 0.21
10 | NAVRSYYEGTENIVAV [FUS18, gene fusion CADPS2-> RNF148] | 542.51 | 0.671 | Yes | 0.95 | 0.005
11 | NAVRSYYETNGGMSFLRITP [FUS19, gene fusion CADPS2-> RNF148] | 12.96 | 0.016 | Yes | 1.26 | 0.009
12 | NRVTALTQN [FUS35, gene fusion TMED3-> KIAA1024] | 3.24 | 0.049 | Yes | 2.28 | 0.019
13 | PKVFPKNQVISLIPKAQEDPEHT [AS127, alternative splicing, ST3GAL6] | 1.44 | 0.08 | Yes | 7.179 | 0.14
14 | PPGGHSPQDLSIREIFCLGHKEVC [AS136, alternative splicing, ZNF592] | 5.91 | 0.072 | Yes | 10.86 | 0.07
15 | PPLITNVTEKPWKHTRIEMPLARLTRP [FUS51, gene fusion POU2AF1-> COLCA1] | 200 | 0.06 | Yes | 11.93 | 0.061
16 | PPTAAASQTCLELER [FUS21, gene fusion FOSB-> KLF6] | 4.24 | 0.04 | Yes | 8.08 | 0.023
17 | PPTAAASQTMQIFVKT [FUS31, gene fusion FOSB-> UBC] | 14.72 | 0.022 | Yes | 0.7 | 0.004
18 | PQEEVPFRSITTELFPSMC [FUS27, gene fusion TBCEL-> TECTA] | 3.38 | 0.009 | Yes | 3.3 | 0.038
19 | PRDNHTDHENPRGSDGQGRWKCPSQVTYIRRTLM [FUS16, gene fusion UBE2J1-> GABRR2] | 8.86 | 0.12 | Yes | 4.388 | 0.027
20 | PVILFKGKVRPIP [AS67, alternative splicing, MTMR14] | 28.23 | 0.52 | Yes | 8.57 | 0.071
21 | QIIYDENRTMQIFVKT [FUS28, gene fusion NCOR2-> UBC] | 247.49 | 0.37 | Yes | 1.13 | 0.009
22 | QILEQPKQVRLKGWDFKC [AS68, alternative splicing, NFKB1] | 4 | 0.022 | Yes | 21.77 | 0.033
23 | QILQQALKIAFLKVVVPLKLHPYSFCH [AS132, alternative splicing, USP25] | 4.73 | 0.026 | Yes | 181.82 | 0.17
24 | QILQQALKKLPFSLCITECETIAYHLARDSNGNLEL [AS131, alternative splicing, USP25] | 299.44 | 0.53 | Yes | 10.53 | 0.008
25 | QIRVPSYSDEG [AS114, alternative splicing, CNTN5] | 7.6 | 0.14 | Yes | 2.05 | 0.02
